Measured values: patent US8178506B2, “Oligomeric compounds and compositions for use in modulation of small non-coding RNAs” (Regulus Therapeutics Inc., priority 2003, dated 2012)
In the oligonucleotide strings, read from the 5' end, every base follows the letter of its sugar. An asterisk marks phosphorothioate; unmarked linkages are phosphodiester. Other units and linkages are bracketed, terminal groups are in braces. A string of capitals states the bases alone. e = 2'-O-(2-methoxyethyl) (MOE); [5mC] = 5-methylcytosine; d = 2'-deoxy (DNA)

Assays:
Type in all cases: cell-based, human
[1] = test system: PEPCK-c; assay: PEPCK-c mRNA expression in HepG2 cells; conditions: for PEPCKc mRNA: four hours, UTC = 100
[2] = test system: IGFBP-1; assay: IGFBP-1 mRNA expression in HepG2 cells; conditions: for IGFBP1 mRNA: four hours, UTC = 100
[3] = test system: follistatin; assay: Follistatin mRNA expression in HepG2 cells; conditions: for Follistatin mRNA: four hours, UTC = 100
[4] = Experiment 1, basal (no insulin), HepG2, 100 nM oligomeric compound
[5] = Experiment 2, 1 nM insulin treated, HepG2, 100 nM oligomeric compound
[6] = HepG2 cells, Experiment 1, basal (no insulin)
[7] = Experiment 3, basal (no insulin), HepG2 cells, 48 hours post-transfection
[8] = Experiment 4, insulin-sensitization: HepG2 cells treated with 1 nM insulin for four hours, 48 h post-transfection, mRNA by real-time PCR

| Substance | PEPCK-c (% UTC) [1, 4] [% UTC] | PEPCK-c (% UTC) [1, 5] [% UTC] | IGFBP-1 (% UTC) [2, 4] [% UTC] | IGFBP-1 (% UTC) [2, 5] [% UTC] | Follistatin (% UTC) [3, 4] [% UTC] | Follistatin (% UTC) [3, 5] [% UTC] | PEPCKc mRNA [1, 6] | IGFBP1 mRNA [2, 6] | Follistatin mRNA [3, 6] | other results |
| --- | --- | --- | --- | --- | --- | --- | --- | --- | --- | --- |
| 327905 (antisense e[5mC]*eA*eG*eA*e[5mC]*eT*e[5mC]*e[5mC]*eG*eG*eT*eG*eG*eA*eA*eT*eG*eA*eA*eG*eG*eA) [compound 327905] | 129 | 147 | 107 | 115 | 104 | 148 |  |  |  |  |
| 341804 (antisense ATCTGCACTGTCAGCACTTT; all 2'-MOE, all phosphorothioate, methylation of C not given here) [compound 341804] |  |  |  |  |  |  | 44 | 162 | 63 |  |
| 327919 (antisense eG*eA*eA*eA*e[5mC]*e[5mC]*e[5mC]*eA*eG*e[5mC]*eA*eG*eA*e[5mC]*eA*eA*eT*eG*eT*eA*eG*e[5mC]*eT) [compound 327919] | 71 | 105 | 96 | 154 | 74 | 178 |  |  |  |  |
| 327899 (antisense e[5mC]*eA*eG*eT*eG*eA*eA*eT*eT*e[5mC]*eT*eA*e[5mC]*e[5mC]*eA*eG*eT*eG*e[5mC]*e[5mC]*eA*eT*eA) [compound 327899] |  |  |  |  |  |  | 42 | 105 | 66 |  |
| 328691 (e[5mC]*e[5mC]*e[5mC]*e[5mC]*eA*dT*d[5mC]*dT*dT*dA*dG*d[5mC]*dA*dT*d[5mC]*eT*eA*eA*eG*eG) [compound 328691] |  |  |  |  |  |  |  |  |  | PEPCK-c (% UTC) [1, 7]: 108 % UTC; PEPCK-c (% UTC) [1, 8]: 97 % UTC; IGFBP-1 (% UTC) [2, 7]: 105 % UTC; IGFBP-1 (% UTC) [2, 8]: 101 % UTC; Follistatin (% UTC) [3, 7]: 93 % UTC; Follistatin (% UTC) [3, 8]: 104 % UTC |
